From patent publication US20050148763A1, “Peg-binding pth or peg-binding pth derivative” (Chugai Seiyaku Kabushiki Kaisha, priority 2002, published 2005)
Like-named read-outs stand apart in the source and are kept apart here.

Key:
[1] = Increasing effect on bone mass in OVX rats; assay type: in vivo
Experimental: 2 k PEG-[Cys^35]-PTH(1-35) was studied for the increasing effect on bone mass in OVX rats as follows. […] These samples were divided into aliquots and stored at −80° C. until use.
Female SD-IGS rats at 7 weeks of age (Charles River Japan, Inc.) were used, 60 of which were ovariectomized (OVX) to remove both ovaries and 7 of which were sham-operated. After 2 weeks, the ovariectomized rats were measured for their body weight and divided into groups of 6 rats each such that the mean body weights of all groups were identical.
Each drug was given subcutaneously at a dose of 1 ml/kg on a 5 times-a-week basis for 4 weeks. On the last day of administration, the rats were housed in metabolic cages and 24-hour urine was collected from each rat. On the following day, after the rats were euthanized by exsanguination under anesthesia, an autopsy was performed to collect blood, lumbar vertebrae and femurs. The urine and blood were taken into tubes and centrifuged to collect the respective supernatants, which were stored at −20° C. until assayed for parameters. The lumbar vertebrae and right femurs were stored in 70% ethanol. The average bone density of the second to fifth lumbar vertebrae and the bone density of the right femur were measured using a dual X-ray bone mineral densitometer (DCS-600EX, ALOKA).

[2] = Hypercalcemic effect of PEG-[Cys^35]-PTH(1-35) in normal female DDY mice; assay type: in vivo; conditions: for Blood iCa level Hour 1: 1 hour after administration; for Blood iCa level Hour 3: 3 hours; for Blood iCa level Hour 6: 6 hours; for Blood iCa level Hour 9: 9 hours; for Blood iCa level Hour 24: 24 hours; for Blood iCa level Hour 0: before administration
Experimental: 2 k, 5 k and 20 k PEG-[Cys^35]-PTH(1-35) were also adjusted similarly to 30, 10 and 2 nmol/mL (calculated as PTH) and allowed to stand on ice immediately before administration.
Using female DDY mice at 6 weeks of age (Japan SLC, Inc.), the corrected level of ionized calcium at pH 7.4 was determined for each sample in the same manner as shown in (1) above. The mice received subcutaneous administration of each drug at a dose of 5 mL/kg. The buffer was administered to a group of 5 mice. […] 150 nmol/kg 2 k, 5 k and 20 k PEG-[Cys^35]-PTH(1-35) were administered to groups of 4 mice each. 50 and 10 nmol/kg 2 k, 5 k and 20 k PEG-[Cys^35]-PTH(1-35) were administered to groups of 5 mice each. At 1, 3, 6, 9 and 24 hours after administration, blood was collected by orbital puncture to monitor the time course of corrected blood ionized calcium levels.

[3] = clinical trial, cited from earlier work
[4] = Hypotensive effect in anesthetized rats; assay type: in vivo; conditions: sc
Experimental: The mono-methoxy 5 k PEG-PTH(1-34) prepared in Example 1(2) was also adjusted similarly to 36.5, 18.3 and 9.1 μg/mL (calculated as PTH(1-34)). The samples thus prepared were then stored on ice and restored to room temperature about 30 minutes before administration.
Female SD rats at 10 weeks of age (Charles River Japan, Inc.) were anesthetized by intraperitoneal administration of 50 mg/kg pentobarbital sodium (Abbott Laboratories). A catheter for blood pressure measurement and a catheter for anesthesia maintenance were inserted into the femoral artery and vein, respectively, of each rat. Anesthesia was maintained using a syringe pump (Terumo Corporation) to ensure continuous injection (at 22.5 mg/kg/hour) of pentobarbital sodium (powder form, Tokyo Kasei Kogyo Co., Ltd.) dissolved in physiological saline (Otsuka Pharmaceutical Co., Ltd.). On the other hand, each catheter for blood pressure measurement was filled with 100 U/mL heparin sodium (Novo Nordisk A/S) in physiological saline. To measure systemic blood pressure, a pressure transducer (Nihon Kohden Corporation) was connected to the catheter for blood pressure measurement and signals from the transducer were input to a blood pressure amplifier (Nihon Kohden Corporation). The resulting data were averaged for use as an indicator of systemic blood pressure. The output of systemic blood pressure was, in turn, input to a measuring unit for instantaneous heart rate (Nihon Kohden Corporation) to determine heart rate. These parameters were continuously recorded on a thermal pen recorder (Graphtec Corporation) at a speed of 5 mm/min. After surgery, an injection needle for administration of a test substance was inserted into the dorsal subcutaneous region of each rat. After each parameter had stabilized, test drugs were administered. […] This figure illustrates changes in blood pressure induced by administration of a negative control (buffer), 50 μg/kg hPTH (1-34) and 36.5 μg/kg 5 k PEG-PTH(1-34) in this order from the upper panel. In addition, the average value of blood pressure before PTH administration and the value at the maximum blood pressure drop after administration were measured for each case to determine the difference between these two values. […] The vertical axis represents the maximum blood pressure drop (mmHg) and the horizontal axis represents the amount of PTH administered.

[5] = Hypercalcemic effect of PEG-PTH(1-34) in normal female DDY mice; assay type: in vivo; conditions: sc, hPTH(1-34) 50-500 nmol/kg, 5 k PEG-PTH(1-34) 150 nmol/kg
Experimental: 2 k and 5 k PEG-PTH(1-34) were also adjusted similarly to 30 nmol/mL (calculated as PTH) and allowed to stand on ice immediately before administration.
Male BDF1 mice at 5 weeks of age (Charles River Japan, Inc.) were measured for their body weight. Immediately before drug administration, blood was collected by orbital puncture into heparinized capillary tubes and measured for baseline levels of blood ionized calcium and pH using a Ca^2+/pH analyzer (Model 348/Bayer Medical Ltd.) to give the corrected level of ionized calcium at pH 7.4 for each sample. The mice received subcutaneous administration of each drug at a dose of 5 mL/kg. […] At 1, 3 and 6 hours after administration, blood was collected by orbital puncture to monitor the time course of corrected blood ionized calcium levels.
The same experiment was repeated on female DDY mice at 5 weeks of age (Charles River Japan, Inc.). The mice received subcutaneous administration of each drug at a dose of 5 mL/kg. […] At 1, 3 and 6 hours after administration, blood was collected by orbital puncture to monitor the time course of corrected blood ionized calcium levels.

Molecule	Blood iCa level Hour 1 ([2]; 50 nmol/kg sc)	Blood iCa level Hour 3 ([2]; 50 nmol/kg sc)	Blood iCa level Hour 6 ([2]; 50 nmol/kg sc)	Blood iCa level Hour 9 ([2]; 50 nmol/kg sc)	Blood iCa level Hour 24 ([2]; 50 nmol/kg sc)	Blood iCa level Hour 0 ([2]; 50 nmol/kg sc)	Blood iCa level Hour 1 ([2]; 150 nmol/kg sc)	Blood iCa level Hour 3 ([2]; 150 nmol/kg sc)	Blood iCa level Hour 6 ([2]; 150 nmol/kg sc)	Blood iCa level Hour 9 ([2]; 150 nmol/kg sc)	Blood iCa level Hour 24 ([2]; 150 nmol/kg sc)	Blood iCa level Hour 0 ([2]; 150 nmol/kg sc)	time of maximum increase in blood ionized calcium levels after administration ([2]; female DDY mice, sc)	further results
2 k PEG-[Cys^35]-hPTH(1-35): [Cys^35]-PTH(1-35) conjugated with mPEG 2 k-MAL (2 kDa methoxy-PEG-maleimide) at the C-terminal cysteine (SVSEIQLMHNLGKHLNSMERVEWLRKKLQDVHNFC; Parathyroid hormone 2 kDa mPEG-maleimide at Cys35; UniProt P01270 32-66, looked up, variant V35C)	1.41 ± 0.02 mM	1.47 ± 0.03 mM	1.47 ± 0.02 mM	1.29 ± 0.05 mM	1.34 ± 0.03 mM	1.27 ± 0.03 mM	1.44 ± 0.02 mM	1.47 ± 0.05 mM	1.48 ± 0.05 mM	1.26 ± 0.02 mM	1.34 ± 0.03 mM	1.32 ± 0.02 mM	3 h	lumbar and femoral bone density, significance (in words) ([1]; OVX rats, 7.5, 30 and 120 nmol/kg sc, 4 weeks): statistically-significant increases in both lumbar and femoral bone density; lumbar and femoral bone density (in words) ([1]; OVX rats, sc 5 times a week for 4 weeks): dose-dependent increases in lumbar and femoral bone density; Blood iCa level Hour 1 ([2]; 10 nmol/kg sc): 1.44 ± 0.03 mM; Blood iCa level Hour 3 ([2]; 10 nmol/kg sc): 1.48 ± 0.02 mM; Blood iCa level Hour 6 ([2]; 10 nmol/kg sc): 1.39 ± 0.02 mM; Blood iCa level Hour 9 ([2]; 10 nmol/kg sc): 1.32 ± 0.04 mM; Blood iCa level Hour 24 ([2]; 10 nmol/kg sc): 1.37 ± 0.02 mM; Blood iCa level Hour 0 ([2]; 10 nmol/kg sc): 1.30 ± 0.04 mM; increased blood ionized calcium level maintained until ([2]; female DDY mice, sc): 6 h
CC[C@H](C)[C@H](NC(=O)[C@H](CCC(=O)O)NC(=O)[C@H](CO)NC(=O)[C@@H](NC(=O)[C@@H](N)CO)C(C)C)C(=O)N[C@@H](CCC(N)=O)C(=O)N[C@@H](CC(C)C)C(=O)N[C@@H](CCSC)C(=O)N[C@@H](Cc1cnc[nH]1)C(=O)N[C@@H](CC(N)=O)C(=O)N[C@@H](CC(C)C)C(=O)NCC(=O)N[C@@H](CCCCN)C(=O)N[C@@H](Cc1cnc[nH]1)C(=O)N[C@@H](CC(C)C)C(=O)N[C@@H](CC(N)=O)C(=O)N[C@@H](CO)C(=O)N[C@@H](CCSC)C(=O)N[C@@H](CCC(=O)O)C(=O)N[C@@H](CCCN=C(N)N)C(=O)N[C@H](C(=O)N[C@@H](CCC(=O)O)C(=O)N[C@@H](Cc1c[nH]c2ccccc12)C(=O)N[C@@H](CC(C)C)C(=O)N[C@@H](CCCN=C(N)N)C(=O)N[C@@H](CCCCN)C(=O)N[C@@H](CCCCN)C(=O)N[C@@H](CC(C)C)C(=O)N[C@@H](CCC(N)=O)C(=O)N[C@@H](CC(=O)O)C(=O)N[C@H](C(=O)N[C@@H](Cc1cnc[nH]1)C(=O)N[C@@H](CC(N)=O)C(=O)N[C@@H](Cc1ccccc1)C(=O)O)C(C)C)C(C)C [hPTH(1-34), reference compound]	1.45 ± 0.03 mM	1.43 ± 0.03 mM	1.33 ± 0.02 mM	1.27 ± 0.05 mM	1.36 ± 0.02 mM	1.31 ± 0.03 mM	1.46 ± 0.02 mM	1.48 ± 0.03 mM	1.36 ± 0.02 mM	1.32 ± 0.04 mM	1.36 ± 0.03 mM	1.33 ± 0.03 mM	3 h	nausea and headache as side effects (in words) ([3]; dose of 20 μg): same frequency as observed in the placebo group; nausea and headache as side effects (in words) ([3]; dose of 40 μg): caused nausea and headache as side effects at a statistically significant level; hypotensive effect after administration (in words) ([4]; anesthetized female SD rats): strong hypotensive effect immediately after administration; hypotensive effect over doses, maximum blood pressure drop (in words) ([4]; anesthetized rats, hPTH(1-34) 12.5-50 μg/kg, 5 k PEG-PTH(1-34) 9.1-36.5 μg/kg): dose-dependent hypotensive effect in the range of 12.5 μg/kg to 50 μg/kg; Blood iCa level Hour 1 ([2]; 500 nmol/kg sc): 1.44 ± 0.04 mM; Blood iCa level Hour 3 ([2]; 500 nmol/kg sc): 1.46 ± 0.04 mM; Blood iCa level Hour 6 ([2]; 500 nmol/kg sc): 1.43 ± 0.01 mM; Blood iCa level Hour 9 ([2]; 500 nmol/kg sc): 1.27 ± 0.04 mM; Blood iCa level Hour 24 ([2]; 500 nmol/kg sc): 1.39 ± 0.02 mM; Blood iCa level Hour 0 ([2]; 500 nmol/kg sc): 1.34 ± 0.03 mM; time of maximum increase in blood ionized calcium levels after administration [5]: 3 h
